In patent US20080249130A1, “Gut microsomal triglyceride transport protein inhibitors” (Sirtris Pharmaceuticals, Inc., priority 2007, published 2008) one finds IC50 data, which are given here for 22 compounds.

Where “and” joins values, the source holds several entries; their conditions need not be identical. Equal entries are not always repeated. Structures can show the parent of a compound that is named as a salt. Where two headings read alike, the source gives them in different places.

The test system of assay [1] is secretion of ApoB by HepG2 cells. Nature of the assay: ApoB secretion inhibition assay in HepG2 cells (ApoB ELISA). The format is cell-based, human. The note with it: Homo sapiens. As to the method: The ability of the compounds of the present invention to inhibit the secretion of ApoB can be determined using the following cell-based assay, which measures the secretion of ApoB by HepG2 cells. ApoB has two possible metabolic fates: entrance into the lipoprotein assembly pathway within the lumen of the endoplasmic reticulum (ER), or degradation in the cytoplasm by the ubiquitin-dependent proteasome. The destiny of ApoB is determined by the relative availability of individual lipids, which is controlled by MTP (Davis, Biochim. Biophys. Acta, 1999, 1440, 1-31).
HepG2 cells (ATCC, HB-8065) are seeded in 96-well plates in DMEM with 10% FBS+pen/strep at a density of 1×10^5 cells/well (100 μl /well). Twenty-four hours after seeding, the plate is aspirated and the media changed to DMEM with 1% BSA and pen/strep, and the cells are serum-starved for 24 hours. After 24 hour serum-starvation, the plate is aspirated again and the cells are then treated for 24 hours with or without compound in DMEM with 1% BSA, 0.3 mM OA (OA complexed to BSA at a 2:1 ratio) and pen/strep. The final concentration of DMSO in the assay (from compound and control) is 0.1%. After 24 hour treatment, conditioned media is collected in an empty 96-well plate.
Cellular viability is measured using the cell permeable dye, AlamarBlue™. This dye undergoes electron reduction in viable cells but not dead cells. The reduced dye product gives a fluorescent signal which can be monitored with a fluorescence plate reader (excitation 545 nm and emission 575 nm). The amount of fluorescence generated in a given well is proportional to the number of viable cells. After collection, the 96-well plate is re-fed with 100 μl media (DMEM with 10% FBS) and 10 μl Alamar Blue™ per well, incubated for 2 hours and then read in a fluorescence plate reader.
ApoB secretion from HepG2 cells is quantitated by testing the conditioned media at […] using an ApoB ELISA kit (ALerCHEK) according to the manufacturer's instructions. The ELISA assay for ApoB is performed as follows: a polyclonal antibody against human ApoB (Chemicon) is diluted 1:1000 in carbonate-bicarbonate buffer and 100 μl are added to each well of a 96-well plate (NUNC). After 5 hours incubation at room temperature, the antibody solution is removed and wells are washed four times with PBS/0.05% TweenD 20 (Cayman Chemical Co.). Non-specific sites on the plastic plate are blocked by incubating wells for 1 to 1.5 hours in a solution of 0.5% BSA and 0.1% TweenD 20 made in PBS. One hundred microliters of a 1:20 dilution of growth medium from the HepG2 cells (made in 0.004% TweenD 20/1% BSA in PBS) is added to each well and incubated for 3 hours at room temperature. Wells are aspirated and washed four times (0.05% TweenD 20 in PBS) prior to adding 100 μl of a 1:1000 dilution (5 μg/ml) of the secondary antibody, mouse anti-human ApoB (Chemicon). After 2 hours incubation at room temperature, this solution is aspirated and the wells are again washed 4 times as above. One hundred microliters of peroxidase-conjugated affinity purified goat anti-mouse IgG (H+L) (Jackson ImmunoResearch Laboratories) (1:10,000 dilution in PBS/1% BSA/0.1% TweenD 20) is then added to each well and incubated for 1 hour at room temperature. After aspirating, the wells are washed 4 times as above and 50 μl of 1-step Ultra TMB ELISA reagent (Pierce) is added to each well and incubated for 5 minutes. The reaction is stopped by the addition of 50 μl of 2 NH2SO4 and absorbance of each well is read at 450 nm.
Background: In an ELISA, binding on a coated surface is turned into a signal by an enzyme label.

The next assay has as its target MTP (Homo sapiens, UniProt P55157). Nature of the assay: In vitro inhibition of MTP, triacylglycerol transfer assay with donor and acceptor liposomes (fluorescence). The format is biochemical. As for the experimental part:
This assay is commercially available (Cat. #D400, Chylos Inc., New York). Liposomes are pipetted in 5 μl aliquots into the wells of a black fluorescence microtiter plate, followed by addition of 5 μl of water and an incubation of 2-5 min to allow the samples to equilibrate to rt. Next, 5 μl of compound dissolved in DMSO is added to the vesicles. The reaction is initated by the addition of 5 μl MTP, followed by incubation for 30 min at room temperature. […] Time of incubation can be increased to measure low activity in different samples. In such situations, samples are prepared just prior to measuring fluorescence units. For this purpose, isopropanol is added to substrate vesicles about 5 min prior to fluorescence measurement as the fluorescence readings in isopropanol decrease with time.

[2] abbreviates: HepG2, Table 6, assay of Example 2, read-out: IC50 ApoB Assay.
Where [3] appears, read: Table 6, assay of Example 3, read-out: IC50 Enzyme Assay.

Sequence of MTP (P55157 19-894, species assumed): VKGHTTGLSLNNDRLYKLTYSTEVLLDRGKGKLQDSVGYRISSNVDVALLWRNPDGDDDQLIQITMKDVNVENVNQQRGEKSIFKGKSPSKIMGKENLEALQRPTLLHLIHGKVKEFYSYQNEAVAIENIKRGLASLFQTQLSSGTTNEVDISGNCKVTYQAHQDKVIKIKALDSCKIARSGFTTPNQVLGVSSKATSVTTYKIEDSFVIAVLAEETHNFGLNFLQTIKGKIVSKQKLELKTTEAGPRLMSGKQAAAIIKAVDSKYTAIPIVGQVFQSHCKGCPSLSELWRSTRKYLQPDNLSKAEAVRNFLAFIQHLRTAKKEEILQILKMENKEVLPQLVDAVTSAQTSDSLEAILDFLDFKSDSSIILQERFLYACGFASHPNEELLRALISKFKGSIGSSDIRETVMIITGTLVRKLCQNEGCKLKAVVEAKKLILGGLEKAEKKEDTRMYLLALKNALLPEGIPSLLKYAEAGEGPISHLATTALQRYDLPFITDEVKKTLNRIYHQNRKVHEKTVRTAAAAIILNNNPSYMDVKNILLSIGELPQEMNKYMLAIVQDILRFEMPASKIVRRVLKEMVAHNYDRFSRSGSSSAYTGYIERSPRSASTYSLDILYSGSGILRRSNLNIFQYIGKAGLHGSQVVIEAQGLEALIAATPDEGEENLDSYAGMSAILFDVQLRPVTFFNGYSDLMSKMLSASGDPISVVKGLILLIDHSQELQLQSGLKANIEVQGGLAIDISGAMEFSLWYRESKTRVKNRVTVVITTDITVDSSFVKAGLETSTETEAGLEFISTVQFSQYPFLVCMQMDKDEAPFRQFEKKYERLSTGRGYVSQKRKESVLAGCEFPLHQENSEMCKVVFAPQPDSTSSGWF
Sequence of MTP (P07237 18-508 partner, species assumed): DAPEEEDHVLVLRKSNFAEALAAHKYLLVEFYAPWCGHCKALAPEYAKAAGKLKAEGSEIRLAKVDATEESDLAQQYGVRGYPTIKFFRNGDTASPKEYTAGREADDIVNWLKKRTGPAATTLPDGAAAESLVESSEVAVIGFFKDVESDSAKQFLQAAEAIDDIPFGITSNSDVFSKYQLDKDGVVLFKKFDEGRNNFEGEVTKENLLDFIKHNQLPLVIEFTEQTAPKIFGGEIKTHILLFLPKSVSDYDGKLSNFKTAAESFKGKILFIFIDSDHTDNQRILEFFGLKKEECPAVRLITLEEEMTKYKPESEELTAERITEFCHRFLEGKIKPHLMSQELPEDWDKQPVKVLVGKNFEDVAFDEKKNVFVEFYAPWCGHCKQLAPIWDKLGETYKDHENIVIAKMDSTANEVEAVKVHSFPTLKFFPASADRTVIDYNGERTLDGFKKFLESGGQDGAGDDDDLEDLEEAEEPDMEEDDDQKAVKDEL

On to `CN(Cc1ccc(F)cc1)C(=O)[C@@H](NC(=O)c1nc2ccc(NC(=O)c3ccccc3-c3ccc(C(C)(C)C)cc3)cc2s1)c1ccccc1` (single isomer, unassigned), for which the half-inhibitory concentration (IC50) (commonly the concentration that inhibits the measured activity by half) in assay [1] (HepG2, Tables 2-5, second symbol of the cell, read-out: IC50 Apo B Secretion Assay (Example 2)) is under 100 nM; at MTP (Tables 2-5, first symbol of the cell, read-out: IC50 Tri-acylglycerol (TAG) Transfer Assay (Example 3)), under 100 nM. For the compound `CN(Cc1ccc(F)cc1)C(=O)[C@@H](NC(=O)c1ccc2nc(NC(=O)c3ccccc3C3CCNCC3)ccc2c1)c1ccccc1` [Compound 1, (S)—N-(2-((4-fluorobenzyl)(methyl)amino)-2-oxo-1-phenylethyl)-2-(2-(piperidin-4-yl)benzamido)quinoline-6-carboxamide hydrochloride], the IC50 in assay [1] (setting [2]) was 6000 nM; on MTP (setting [3]), over 1000 nM. The matching figures for `CN(Cc1ccc(F)cc1)C(=O)[C@@H](NC(=O)c1ccc2nc(NC(=O)c3ccccc3C3CCNC3)ccc2c1)c1ccccc1` (stereo partly drawn) [Compound 2, N—((S)-2-((4-fluorobenzyl)(methyl)amino)-2-oxo-1-phenylethyl)-2-(2-(pyrrolidin-3-yl)benzamido)quinoline-6-carboxamide hydrochloride]: 3500 nM and 530 nM. In the same order, the values of `CN(Cc1ccc(F)cc1)C(=O)[C@@H](NC(=O)c1ccc2nc(NC(=O)c3ccccc3-c3cn4ccsc4n3)ccc2c1)c1ccccc1` [Compound 3, (S)—N-(2-((4-fluorobenzyl)(methyl)amino)-2-oxo-1-phenylethyl)-2-(2-(imidazo[2,1-b]thiazol-6-yl)benzamido)quinoline-6-carboxamide] are 8 nM and 10.9 nM. As to `CN(Cc1ccc(F)cc1)C(=O)[C@@H](NC(=O)c1nc2ccc(NC(=O)c3ccccc3-c3ccc(C(C)(C)C)cc3)cc2s1)c1ccccc1` [Compound 4, (S)-6-(4′-tert-butylbiphenyl-2-ylcarboxamido)-N-(2-((4-fluorobenzyl)(methyl)amino)-2-oxo-1-phenylethyl)benzo[d]thiazole-2-carboxamide], the IC50 in assay [1] (setting [2]) is 3 nM; on MTP (setting [3]) it was 13.9 nM and 3 nM. With `CCCCN(C)C(=O)[C@@H](NC(=O)c1nc2ccc(NC(=O)c3ccccc3-c3ccc(C(C)(C)C)cc3)cc2s1)c1ccccc1` [Compound 5], the values for the IC50 (in assay [1] (setting [2]); at MTP (setting [3])) were 6.5 nM and 9.5 nM, respectively. The matching figures for `CC(C)(C)c1ccc(-c2ccccc2C(=O)Nc2ccc3nc(C(=O)N[C@H](C(=O)N4CCCC4)c4ccccc4)sc3c2)cc1` [Compound 7]: 1 nM and 2.6 nM. The matching figures for `CCCCCNC(=O)[C@@H](NC(=O)c1nc2ccc(NC(=O)c3ccccc3-c3ccc(C(C)(C)C)cc3)cc2s1)c1ccccc1` [Compound 8]: 3.1 nM and 8.4 nM. The matching figures for `CN(Cc1ccc(F)cc1)C(=O)[C@@H](NC(=O)C12CCC(CNC(=O)c3ccccc3-c3ccc(C(C)(C)C)cc3)(CC1)CC2)c1ccccc1` [Compound 10, (S)-4-((4′-tert-butylbiphenyl-2-ylcarboxamido)methyl)-N-(2-((4-fluorobenzyl)(methyl)amino)-2-oxo-1-phenylethyl)bicyclo[2.2.2]octane-1-carboxamide]: 54 nM and 33 nM. For `CC(C)(C)c1ccc(-c2ccccc2C(=O)Nc2nc(-c3cccc(C(=O)N[C@H](C(=O)N4CCCC4)c4ccccc4)c3)cs2)cc1` [Compound 12, (S)-4′-tert-butyl-N-(4-(3-(2-oxo-1-phenyl-2-(pyrrolidin-1-yl)ethylcarbamoyl)phenyl)thiazol-2-yl)biphenyl-2-carboxamide], the IC50 in assay [1] (setting [2]) worked out at 41 nM; on MTP (setting [3]) it was 2 nM. With `CC(C)(C)c1ccc(-c2ccccc2C(=O)Nc2ccc3nc(C(=O)N[C@H](C(=O)N4CCC(F)(F)C4)c4ccccc4)sc3c2)cc1` [Compound 14], the IC50 is 8.8 nM in assay [1] (setting [2]) and 5.2 nM at MTP (setting [3]). On to `CN(Cc1ccc(F)cc1)C(=O)[C@@H](NC(=O)c1nc2ccc(NC(=O)c3ccccc3-c3cn4ccsc4n3)cc2s1)c1ccccc1` [Compound 24, (S)—N-(2-((4-fluorobenzyl)(methyl)amino)-2-oxo-1-phenylethyl)-6-(2-(imidazo[2,1-b]thiazol-6-yl)benzamido)benzo[d]thiazole-2-carboxamide], for which the IC50 in assay [1] (setting [2]) stood at 23.7 nM; on MTP (setting [3]), 15 nM. In the same order, the values of `CN(Cc1ccc(F)cc1)C(=O)[C@@H](NC(=O)c1nc2ccc(NC(=O)c3ccccc3-n3cccc3)cc2s1)c1ccccc1` [Compound 30] are 31 nM and 45 nM. For the compound `CN(Cc1ccc(F)cc1)C(=O)[C@@H](NC(=O)c1nc2ccc(NC(=O)c3ccccc3-c3ccc(C(F)(F)F)cc3)cc2s1)c1ccccc1` [Compound 32], the concentration for half-maximal inhibition (IC50) in assay [1] (setting [2]) is 17.3 nM; on MTP (setting [3]) it was 145 nM. As to `CN(Cc1ccc(F)cc1)C(=O)[C@@H](NC(=O)c1cn2cc(NC(=O)c3ccccc3-c3ccc(C(C)(C)C)cc3)ccc2n1)c1ccccc1` [Compound 33, (S)-6-(4′-tert-butylbiphenyl-2-ylcarboxamido)-N-(2-((4-fluorobenzyl)(methyl)amino)-2-oxo-1-phenylethyl)imidazo[1,2-a]pyridine-2-carboxamide], the IC50 worked out at 6.4 nM in assay [1] (setting [2]) and 7.1 nM at MTP (setting [3]).

For the compound `CC(C)(C)c1ccc(-c2ccccc2C(=O)Nc2nc(-c3ccc(C(=O)N[C@H](C(=O)N4CCCC4)c4ccccc4)cc3)cs2)cc1` [Compound 36, (S)-4′-tert-butyl-N-(4-(4-(2-oxo-1-phenyl-2-(pyrrolidin-1-yl)ethylcarbamoyl)phenyl)thiazol-2-yl)biphenyl-2-carboxamide], the figures for the IC50 (in assay [1] (setting [2]); on MTP (setting [3])) were 6.7 nM and 5.7 nM, respectively. In the same order, the values of `CN(Cc1ccc(F)cc1)C(=O)[C@@H](NC(=O)c1nc2ccc(NC(=O)c3ccccc3-c3csc(-c4ccccc4)n3)cc2s1)c1ccccc1` [Compound 38] are 22.4 nM and 24 nM. Consider `CN(Cc1ccc(F)cc1)C(=O)[C@@H](NC(=O)c1nc2ccc(NC(=O)c3ccccc3-c3cn4ccccc4n3)cc2s1)c1ccccc1` [Compound 40], for which the results for the IC50 (in assay [1] (setting [2]); on MTP (setting [3])) were 4.2 nM and 13 nM, respectively. In the same order, the values of `Cc1cccc(C(=O)Nc2ccc3nc(C(=O)N[C@H](C(=O)N(C)Cc4ccc(F)cc4)c4ccccc4)sc3c2)c1-c1ccc(C(C)(C)C)cc1` [Compound 41] are 2.9 nM and 4.7 nM. With `Cc1cccc(C(=O)Nc2nc(-c3cccc(C(=O)N[C@H](C(=O)N4CCCC4)c4ccccc4)c3)cs2)c1-c1ccc(C(C)(C)C)cc1` [Compound 42], the IC50 in assay [1] (setting [2]) was 8.5 nM; at MTP (setting [3]), 4.5 nM. As to `COc1cccc(C(=O)NC23CCC(C(=O)N[C@H](C(=O)N(C)CC(C)C)c4ccccc4)(CC2)CC3)c1-c1ccc(C(C)C)cc1` [Compound 116], the concentration for half-maximal inhibition (IC50) in assay [1] (setting [2]) was 247 nM. On to `CN(Cc1ccc(F)cc1)C(=O)[C@@H](NC(=O)c1ccc2nc(NC(=O)c3ccccc3-c3ccc(C(C)(C)C)cc3)ccc2c1)c1ccccc1` [compound 3, reference compound], for which, in assay [1] (Table 1, HepG2 cells, read-out: gMTP IC50 ApoB Secretion Assay (Example 2)), the half-inhibitory concentration (IC50) amounted to 1.6 nM.
